# Experimental data: publication PMC11984924, “Dipeptidic Phosphonates: Potent Inhibitors of Pseudomonas aeruginosa Elastase B Showing Efficacy in a Murine Keratitis Model” (Advanced Science, 2025)
# Values joined by “and” are separate entries in the source; they are usually repeats but may differ in a detail not shown here. Equal values may be shown once.
# How the values were obtained:
# [1] = system: sodium channel; experiment: SafetyScreen44: sodium channel binding; design: species or system human; details: 100 µM
# Excerpt: (§1) Moreover, we explored the safety profile of frontrunner (R)‐30 in more detail in order to detect additional crucial off‐target interactions. For this purpose, we employed the SafetyScreen44 in vitro panel comprising selected binding, inhibition and uptake assays.^[ [35] ^] The panel is a specialized pharmacological profiling tool that tests compounds against 44 key molecular targets, aiming to identify potential safety risks early in drug discovery. […]
# (§2) The off-target Safety Screen44TM was performed by the CRO Eurofins Cerep SA (Celle-
# (§3) L'Evescault, France) according to their protocols.[13] […]
# (§4) MMP-1 MMP-2 MMP-3 TACE (ADAM17)
# (§5) Compound [% inhibition at [% inhibition at [% inhibition at [% inhibition at 100
# [2] = target: T1, LasB (Pseudomonas aeruginosa, UniProt Q02RJ6); experiment: In vitro LasB inhibition assay; format: biochemical; details: IC50 LasB inhibition
# T1 construct: made in house
# T1 sequence (Q02RJ6 198-498): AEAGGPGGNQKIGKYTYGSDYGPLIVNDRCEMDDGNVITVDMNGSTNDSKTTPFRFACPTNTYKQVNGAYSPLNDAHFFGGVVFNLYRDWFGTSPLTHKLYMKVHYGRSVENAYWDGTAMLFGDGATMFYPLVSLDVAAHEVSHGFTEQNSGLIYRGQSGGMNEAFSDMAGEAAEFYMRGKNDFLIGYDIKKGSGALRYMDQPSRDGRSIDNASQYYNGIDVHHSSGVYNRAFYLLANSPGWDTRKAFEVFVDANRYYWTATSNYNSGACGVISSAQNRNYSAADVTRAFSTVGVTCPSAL
# Description: 3.1 In vitro inhibition assays
# LasB was expressed and purified as described previously.[3] In vitro inhibition assays (LasB,
# MMPs, TACE). All in vitro inhibition assays were performed as described previously.[10] […]
# Fluorescence signals were measured using a CLARIOstar plate reader (BMG
# Labtech, Ortenberg, Germany). […]
# [3] = system: 44 key molecular targets; experiment: SafetyScreen44 in vitro panel (whole panel); design: species or system human; details: 100 µM
# Excerpt: as §1, §2, §3, §4, §5
# [4] = Lipophilicity determination (HPLC-based LogD7.4); format: physicochemical; details: C18 column; pH 7.4, HPLC-based
# Description: 3.3 Lipophilicity determination
# LogD7.4 was analyzed using an HPLC−based method. The UV retention time of reference compounds with known LogD7.4 was determined and plotted toward their LogD7.4. Linear regression was used to determine the LogD7.4 of unknown compounds. Analysis was performed using a Vanquish Flex HPLC system with variable wavelength detector (Thermo Fisher, Dreieich, Germany) with the following conditions: EC150/2 NUCLEODUR C18 Pyramid column, 5 μM (Macherey Nagel, Düren, Germany); eluent A: 50 mM NH4OAc pH 7.4, eluent B: acetonitrile, and flow: 0.6 mL/min.
# [5] = In vivo pharmacokinetic study in CD-1 mice, 30 mg/kg SC; details: male, mouse, 30 mg/kg subcutaneous
# Description: page 60: Figure S7: Basolateral concentration of 9 (A) and 30 (B) in the Calu-3 permeability model. […] For pharmacokinetic experiments, outbred male CD-1 mice (Charles River, Netherlands), 4 weeks old, were used. The animal studies were conducted in accordance with the recommendations of the European Community (Directive 2010/63/EU, 1st January 2013). All animal procedures were performed in strict accordance with the German regulations of the Society for Laboratory Animal Science (GV-SOLAS) and the European Health Law of the Federation of Laboratory Animal Science Associations (FELASA). Animals were excluded from further analysis if sacrifice was necessary according to the human endpoints established by the ethical board. All experiments were approved by the ethical board of the […] Verbraucherschutz und […], Oldenburg, Germany. 30 was subjected to a focused PK study and was administered 30 mg/kg SC. At time points t= […] euthanatized and blood was collected from the heart. For all PK studies, whole blood was collected into Eppendorf tubes coated with 0.5 M EDTA and immediately spun down at 13,000 rpm for 10 min at 4°C. The plasma was transferred into a new Eppendorf tube and then stored at -80°C until analysis. Then, a broncheoalveolar lavage was conducted using isotonic sodium chloride solution for all PK studies. For all PK studies, lung, kidney and liver were aseptically removed and homogenized using a Polytron (Kinematica) in isotonic sodium chloride solution. Organ samples were aliquoted into Eppendorf tubes and stored at -80°C until analysis. Moreover, spontaneous urine was also collected. […] system and coupled to an AB Sciex QTrap6500+ mass spectrometer as described previously.[10] Mass spectrometric conditions can be found in Table S5. First, a calibration curve was prepared by spiking different concentrations of 30 into the respective matrix (mouse […] (1 picture or pasted object on this page, not shown here) page 61: plasma (pooled, from CD-1 mice) for plasma samples, isotonic sodium chloride solution for BALF samples, lung tissue for lung samples, kidney tissue for kidney samples, liver tissue for liver samples and urine for urine samples). Caffeine was used as an internal standard. In addition, quality control samples (QCs) were prepared for 30 with the respective matrix. The following extraction procedure was used: 7.5 μl of a plasma sample (calibration samples, QCs […] internal standard for 5 min at 2000 rpm on an Eppendorf MixMate® vortex mixer. 10 μl of a urine sample (calibration samples, QCs or PK samples) was extracted with 40 μl of methanol containing 12.5 ng/ml of caffeine as internal standard for 5 min at 2000 rpm on an Eppendorf MixMate® vortex mixer. Then samples (plasma and urine) were spun down at 13.000 rpm for 5 min. Supernatants were transferred to standard HPLC-glass vials. 50 μl of a BALF / lung tissue / kidney tissue or liver tissue sample (calibration samples, QCs or PK samples) were extracted with 50 μl of methanol and 1 μl caffeine (concentration 1 μg/ml in methanol) for 5 min at 800 rpm on an Eppendorf MixMate® vortex mixer. Then samples (BALF, liver, kidney, lung) were spun down at 4,000 rpm for 40 min at 4°C. Supernatants were transferred to 96well V-bottom plates (Greiner). Urea was used to enable calculation of epithelial lining fluid (ELF) concentrations. Peak areas of each sample and of the corresponding internal standard were analyzed using MultiQuant 3.0 software (AB Sciex). Peak areas of the respective sample were normalized to the internal standard peak area. Peaks of PK samples were quantified using the calibration curve. The accuracy of the calibration curve was determined using QCs independently prepared on different days. PK parameters were determined using a non- compartmental analysis with PKSolver.[11] ELF concentrations were calculated using the following formula (2).[12] (1) V_ELF=V_BALF × (Urea_BALF)/(Urea_Plasma ) (2) c_ELF=c_BALF× V_BALF/V_ELF S60
# [6] = Plasma stability, Wistar rat; format: in vitro ADME; details: read-out: Rat Plasma t1/2
# Description: To determine stability in plasma, the compound (1 µM) was incubated with pooled CD -1 […]
# mouse/human/Wistar rat or Göttingen minipig plasma (Neo Biotech, Nanterre, France).
# Samples were taken by mixing aliquots with 4 volumes of acetonitrile containing internal […]
# standard (125 nM diphenhydramine). The plasma stability of procain, propantheline and diltiazem were determined in parallel to confirm the enzymatic activity. Samples were stored […]
# on ice until the end of the incubation and precipitated protein was removed by centrifugation […]
# (15 min, 4 °C, 4,000 g, two centrifugation steps). Concentration of the remaining test compound at the different time points was analyzed by HPLC-MS/MS (TSQ Quantum Access MAX, […]
# Thermo Fisher, Dreieich, Germany) and used to determine half-life (t1/2).
# Table S2: Additional in vitro ADMET data for selected dipeptides. n.d.: not determined.
# Kinetic Liver S9 Clint [µL/mg/min] Plasma t1/2 [min] LogD7.4 […]
# pH 7.4 [µM] Mouse Human Mouse Human
smiles,measurement,setting,value
CC(=O)c1ccc(NC(=O)[C@@H](NC(=O)[C@@H](CC(C)C)P(=O)(O)O)C(C)C)cc1 [(R)‐30],sodium channel binding inhibition,[1],91.1%
same,IC50,[2],4 nM and 3.7 nM
same,SafetyScreen44: number of targets inhibited,[3],ten targets by >50%
CC(C)CC(C(=O)N[C@H](C(=O)Nc1ccc(Cl)c(Cl)c1)C1CCCCC1)P(=O)(O)O (stereo partly drawn) [compound 14],chromatographic logD,[4],1.14
same,IC50,[2],12.4 ± 0.3 nM
CC(C)C[C@H](C(=O)N[C@H](C(=O)Nc1ccc(-n2ccnc2)cc1)C(C)C)P(=O)(O)O [(R)‐36],chromatographic logD,[4],-0.67
same,IC50,[2],10.9 ± 0.3 nM
CC(=O)c1ccc(NC(=O)[C@@H](NC(=O)C(CC(C)C)P(=O)(O)O)C(C)C)cc1 (stereo partly drawn) [compound 30],Kp,"[5]; CD-1, epithelial lining fluid (ELF) / plasma, sc, read-out: ELF/plasma ratio",~0.38
same,AUC(0-t),"[5]; CD-1, sc, plasma",249 ± 15.5 µg·h/mL
same,CL/F,"[5]; CD-1, sc, plasma",1.3 ± 0.3 mL/min/kg
same,Cmax,"[5]; CD-1, sc, plasma",32200 ± 8500 ng/mL
same,MRT,"[5]; CD-1, sc, plasma",24.6 ± 16 h
same,Tmax,"[5]; CD-1, sc, plasma",0.75 ± 0.4 h
same,half-life,"[5]; CD-1, sc, plasma",18.5 ± 11 h
same,half-life at 1 µM,[6],> 4 h
same,IC50,[2],5 ± 0.2 nM
CC(C)CC(C(=O)N[C@H](C(=O)Nc1ccc(Cl)c(Cl)c1)C1CCC1)P(=O)(O)O (stereo partly drawn) [compound 13],chromatographic logD,[4],-0.58
same,IC50,[2],11.9 ± 0.3 nM
